Test results as given in patent publication EP2845863A1, “Mathanococcus jannaschii protease and its use” (Consejo Superior de Investigaciones Cientificas (CSIC), priority 2013, dated 2015).
Like-named read-outs stand apart in the source and are kept apart here. Non-standard residues stand in square brackets, D forms with d. Residues, ends and D or L forms follow the SMILES beside them. *: point of attachment. Sta = CC(C)C[C@H](N)[C@@H](O)CC(=O)O; Isovaleryl = CC(C)CC(=O)*

Molecular target: T1, Methanococcus jannaschii selecase, wild type, SEQ ID No: 1 (Methanocaldococcus jannaschii, UniProt Q58610)
T1 sequence (Q58610 1-110): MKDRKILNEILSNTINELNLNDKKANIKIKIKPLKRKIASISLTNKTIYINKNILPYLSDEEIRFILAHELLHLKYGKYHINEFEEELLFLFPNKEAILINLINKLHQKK
Experiment: Inhibition assay with fluorogenic substrate Abz-E-L-A-Y-F-Y-P-E-K(dnp)
Format: biochemical
Details: for activity at 100 µM: inhibitor 0.1 mM
Protocol: Proteolytic activities were assayed at 37°C in buffer E (50 mM MES, 150 mM NaCl, pH 5.5), buffer F (50 mM HEPES, 150 mM NaCl, pH 7.5) or buffer G (50 mM CHES, 150 mM NaCl, pH 9.5) at a final protein concentration of 50 µg/ml unless otherwise stated.
For inhibition assays, selecase (at 2 µM in buffer F) was incubated for 30 min with different classes of protease inhibitors and the remaining proteolytic activity was then measured using the fluorogenic substrate Ab[…](dnp) at 37°C. Metal substitution assays were performed by removing the pre-existing metal upon purification through dialysis against 10 mM and 1 mM 1,10-phenanthroline and subsequent dialysis against 1 mM and 10 µM chloride or sulfate salt of a set of divalent metals, similarly as described above to obtain fully active protein. Metals tested were zinc, cobalt, magnesium, manganese, calcium, cadmium, copper, and nickel.

[1] = inhibitor 1 mM, selecase 2 µM in buffer F (50 mM HEPES, 150 mM NaCl, pH 7.5), incubated 30 min with inhibitor, remaining activity at 37°C, no inhibitor = 100, mean of three, SD within ±5, read-out: Relative activity (%)
[2] = selecase 2 µM in buffer F (50 mM HEPES, 150 mM NaCl, pH 7.5), incubated 30 min with inhibitor, remaining activity at 37°C, no inhibitor = 100, mean of three, SD within ±5, read-out: Relative activity (%)
[3] = inhibitor 1 mM, selecase 2 µM in buffer F (50 mM HEPES, 150 mM NaCl, pH 7.5), incubated 30 min with inhibitor, remaining activity at 37°C, no inhibitor = 100, mean of three, SD within ±5

Work on `N=C(N)c1ccccc1` [Benzamidine] yielded an activity at 1000 µM [1] of 66%.

`CC(C)C[C@H](NC(=O)[C@H]1O[C@@H]1C(=O)O)C(=O)NCCCCNC(=N)N` [E-64] gave an activity at 100 µM [2] of 98%.

`O=C(O)CN(CCN(CC(=O)O)CC(=O)O)CC(=O)O` [EDTA] showed an activity at 1000 µM (pH 7.5, read-out: Relative activity (%)) of 0%.

In the case of `O=S(=O)(F)Cc1ccccc1` [PMSF], the “Relative activity (%)” value [3] is reported as 82%.

`NCCc1ccc(S(=O)(=O)F)cc1` [Pefabloc] was tested, and the “Relative activity (%)” value [3] was 78%.

With `CC(C)CC(=O)N[C@H](C(=O)N[C@H](C(=O)N[C@@H](CC(C)C)[C@@H](O)CC(=O)N[C@@H](C)C(=O)N[C@@H](CC(C)C)[C@@H](O)CC(=O)O)C(C)C)C(C)C` [Pepstatin A] (Isovaleryl-VV[Sta]A[Sta]-OH) the activity at 100 µM [2] was 75%.

Molecule `NC(=O)CI` [lodoacetamide] has an activity at 1000 µM [1] of 79%.
